Laboratory results as given in patent US6958318B2, “Recombinant bacterial cells for delivery of PNP to tumor cells” (The UAB Research Foundation, priority 1993, dated 2005).
Values joined by “and” are separate entries in the source; they are usually repeats but may differ in a detail not shown here. Equal entries are not always repeated. “Also recorded” adds a separate entry of the source.

How the values were obtained:
human PNP = biological target: T1, human PNP (Homo sapiens, UniProt P00491); test: Cleavage of purine analog nucleosides by human PNP (HPLC); type: biochemical
T1 sequence (P00491 1-289): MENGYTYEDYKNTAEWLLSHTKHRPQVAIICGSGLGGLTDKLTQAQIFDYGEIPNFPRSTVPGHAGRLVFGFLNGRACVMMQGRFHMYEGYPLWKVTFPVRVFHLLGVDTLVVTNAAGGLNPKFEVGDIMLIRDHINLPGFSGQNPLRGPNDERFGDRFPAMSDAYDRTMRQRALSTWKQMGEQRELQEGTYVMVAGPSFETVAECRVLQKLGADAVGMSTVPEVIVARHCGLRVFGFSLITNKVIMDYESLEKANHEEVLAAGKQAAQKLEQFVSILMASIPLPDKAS

E. coli PNP [1] = biological target: T2, E. coli PNP (Escherichia coli, UniProt P0ABP8); type: biochemical
T2 sequence (P0ABP8 2-239): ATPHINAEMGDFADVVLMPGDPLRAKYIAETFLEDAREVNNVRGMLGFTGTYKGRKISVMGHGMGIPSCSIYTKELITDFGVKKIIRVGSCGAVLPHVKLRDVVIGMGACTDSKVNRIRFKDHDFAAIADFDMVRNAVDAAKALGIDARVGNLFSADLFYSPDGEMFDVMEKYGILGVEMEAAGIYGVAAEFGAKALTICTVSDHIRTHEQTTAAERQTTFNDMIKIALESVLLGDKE

E. coli PNP [2] = biological target: T2, E. coli PNP
[3] = tested on: tumor cells transduced with the E. coli PNP; test: Killing of PNP-transduced tumor cells in vitro by other prodrugs; type: cell-based
Text: In addition to MeP-dR, two other prodrugs suitable for E. coli PNP activation in tumor cells can be applied to the methodology of the present invention. These prodrugs are F-araA and 2-F-2′deoxyadenosine. […] As desired, this dose had no effect on control untransduced, tumor cells.

D54-PNP tumors = test: E. coli PNP-transduced D54 glioma tumors in nude mice; type: in vivo; conditions: previous studies
Procedure: Female athymic nude mice (nu/nu) were implanted sc with 2×10^7 cells of either D54 parental tumor cells (D54-wt) or D54 tumor cells that had been transduced with the E. coli PNP (D54-PNP). After the tumors had grown to approximately 150 mg, they were treated ip with either vehicle or 67 mg/kg of MeP-dR (IP) once a day for 3 days (days 6, 7 and 8 after implantation). The tumor sizes were measured twice a week after treatment.
A confirmation experiment was set up exactly as described above, except that animals were treated with two doses of MeP-dR (45 and 67 mg/kg) (FIGS. 10 and 11). The results of this experiment were similar (Table V). There were 8 of 10 complete regressions in mice bearing the D54-PNP tumors that were treated with 67 mg/kg of MeP-dR. In 4 mice the tumors subsequently returned and grew. There were still 4 of 10 tumor-free survivors 60 days after the treatment had stopped. […] There were 2 of 10 complete regressions and 3 partial responses. […] The delay in the time required to double twice due to treatment with MeP-dR was 5 to 6 days in the non-transduced tumors and greater than 24 days in transduced tumors. In this experiment, the growth rate of the D54-PNP tumors was considerably slower than it was in the first experiment. There was no change in the growth rate of the D54-wt tumors. The reason for the slow growth rate of the D54-PNP tumors in this experiment is not known. […] (In other words, if a tumor was too small to measure, it was not included in the average size). This means that the overall tumor regressions in the D54 PNP group are actually much more pronounced than they appear in FIGS. 8-11.

16/C-PNP cells = test: 16/C-PNP tumors in athymic nude mice; conditions: 100 mg/kg IP 3 id × 3 d; monophosphate
[4] = tested on: wild type murine breast carcinoma cells (16/C cell line); test: Wild-type 16/C tumors in nude mice; type: in vivo; conditions: FIG. 6
Procedure: For studies conducted with nu/nu mice, cells obtained from stable cultures of transduced cell lines were injected subcutaneously into the right or left flank of the mice. Mice with visible tumor growth were used for further studies. For the administration of purine prodrug, mice were administered MeP-dR or F-araAMP by IP injection.
Four to five nude (nu/nu) mice per group were inoculated with wild type murine breast carcinoma cells (16/C cell line), or PNP transduced 16/C cells. Mice with established tumors (approximately 100 mm^3) were treated with MeP-dR (100 mg/kg/d IP×3 d) or F-araAMP (100 mg/kg/IP 3 id×3 d).

16/C-PNP tumors = test: E. coli PNP-transduced 16/C tumors in B6C3F1 mice; type: in vivo
Procedure: (§1) Transduced 16/C cells were implanted in mice by subcutaneous injection of approximately 10^6 cells harvested from the cultures of stably transduced 16/C cells described above. The mice were examined visibly for tumor growth and those with developing tumors were maintained. To prepare mice for use in the in vivo experiments, the tumors were removed from mice with significant tumor growth and cut into 30-60 mg pieces. One 30-60 mg piece of the tumor was subcutaneously implanted into the subaxillary region of each female B6C3F1 mouse. The tumors were allowed to develop and mice with tumors of 100 mm^3 were used.
Six mice per group with established PNP-transduced 16/C tumors were treated with aqueous control solution, MeP-dR or F-ara AMP, as above. […] (Table III, 16/C-PNP treatment.)

PNP transduced tumors = type: in vivo; conditions: mouse, in vivo
wild-type 16/C tumors = test: Wild-type 16/C tumors in B6C3F1 mice; type: in vivo
Procedure: as §1
Six mice (B6C3F1) per group with established wild type 16/C tumors were treated with an aqueous control solution, MeP-dR (100 mg/kg IP qd×3d) or 2-fluoro-arabinofuranosyladenine monophosphate (F-araAMP) (100 mg/kg IP, […]). The wild type tumors grew rapidly in the presence or absence of either of the prodrugs. […] (Table III, Wild-type 16/C treatment).

D54 glioma tumors = test: D54 tumors of mixed wild-type and transduced cells (80 to 20); conditions: in vivo
[5] = tested on: T-84 colon carcinoma cells; test: Toxicity of MeP and MeP-dR in untransfected T-84 cells; type: cell-based, human
Procedure: T-84 colon carcinoma cells were grown in Dulbecco's modified Eagle medium containing F12 nutrient medium (DMEM/F12) (GIBCO/BRL, Gaithersburg, Md.) in 6 well trays to a density of approximately […] (−20% confluency).
Untransfected T-84 colon carcinoma cells were treated with increasing concentrations of either MeP-dR or MeP. After 5 days the cells were removed from each well and the number of dye excluding cells were determined with the aid of a hemacytometer. Cells were studied both at passage 48 (p. 48) and passage 61 (p. 61). MeP was obtained from Sigma Chemical Company (St. Louis, Mo.). MeP-dR was synthesized by standard methods as described (J. A. Montgomery and K. Howson, J. Med. Chem., 11:48-52 (1968)). The nucleoside and base were dissolved in serum free DMEM/F12 at a concentration of 1 mg/ml and added directly to 1 ml DMEM/F12 with 10% fetal bovine serum at the concentrations described below in order to cover 1-2×10^5 cells/well.
Initial cytopathic effects due to MeP were observed within 24 hours (for example, rounding of cells, with some cells detaching from plate). Viable cells were counted 5 days following addition of drug. […] Trypan blue exclusion was used to confirm viability in cells retaining recognizable structure at all concentrations studied. […] If the toxicity of MeP-dR is due to very low levels of liberation of MeP by human PNP, then combination with selective inhibitors of human PNP could prevent this toxicity.

[6] = tested on: CF PAC (human pancreatic adenocarcinoma) cells; test: Intratumoral MeP in established human pancreatic tumors in SCID mice; type: in vivo; conditions: once a day for three days
Procedure: CF PAC (human pancreatic adenocarcinoma) cells were grown in T75 flasks, trypsinized, washed with PBS and then inoculated subcutaneously into female SCID mice at approximately 2×10^7 cells per animal. The tumors were allowed to grow for several days until they reached the size of approximately […]. At this point, groups of five animals were treated either with vehicle (PBS), PBS containing methyl purine (1.67 mg/kg) or PBS with a higher dose of methyl purine (5.0 mg/kg). Drug or vehicle was injected intratumorally with 3-4 needle passes. Animals were treated with either vehicle or drug one time each day for three days. The growth of the tumors was followed. Measurements in two dimension were used to approximate the overall tumor size. […] For example, purine analogs which are known to have strong cytotoxic activity such as 2-fluoroadenine, 2-fluoroadenosine, 9-[ribosyl]-6-methylpurine, 2-amino-6-chloro-1-deazapurine, 3-deazaguanine, 6-thioguanine, and 6-mercaptopurine can be directly administered to a tumor to cause regression and/or inhibit tumor growth.

[7] = Stability under tissue culture conditions (HPLC of supernatants); conditions: HPLC analysis of supernatants
Mel-1 cells = test: Wild type melanoma cell viability; type: cell-based, human; conditions: concentrations as low as 0.5 μg/ml, five days
CEM cells = test: Toxicity to nondividing CEM cells (1% serum); type: cell-based; conditions: 10 μg/ml, non-proliferating cells in 1% serum
Procedure: Results from experiments indicate that MeP is able to kill non-proliferating cells. This distinguishes MeP from most other antitumor agents. In the first experiment, CEM cells were cultured in 1% serum instead of the normal 10% serum for 48 hours. Under these conditions, the cells stop growing and the cell numbers stabilize at 1.5 to 2 times the original cell numbers. Cell growth continues when cells are returned to culture medium containing 10% serum.

[8] = tested on: Nc1nc(F)nc2c1ncn2[C@H]1C[C@H](O)[C@@H](CO)O1; test: purified protein, by the assay type
[9] = tested on: OC[C@H]1O[C@@H](n2cnc3c(O)ncnc32)[C@H](O)[C@@H]1O; test: purified protein, by the assay type; conditions: other: enzyme source: Bacteria
[10] = IP for three days, MeP-dR 100, F-araAMP 500 mg/kg/day

Nc1nc(F)nc2c1ncn2[C@@H]1O[C@H](CO)[C@@H](O)[C@@H]1O [F-araA, 2-F-arabinofuranosyl-adenine]
Percent of substrate cleaved by Human PNP, 100 μM (human PNP): 0(88) Percent and 0(86) Percent | Percent of substrate cleaved by Human PNP, 1 mM (human PNP): 0(50) Percent and 0(47) Percent | Substrate quality for mammalian (human) PNP (human PNP): poor substrates; also recorded: not cleaved | Percent of substrate cleaved by E. coli PNP, 100 μM (E. coli PNP [1]): 3(86) Percent and 5(86) Percent | Substrate quality for bacterial (E. coli) PNP (E. coli PNP [1]): moderate substrates; also recorded: poorly cleaved | Km (E. coli PNP [2]): 510 µM | Killing of PNP-transduced tumor cells in vitro [3]: high level killing | Killing of transduced versus untransduced tumor cells ([3]; 500 ng/ml): specifically killed transduced, but not untransduced, tumor cells

Nc1nc(F)nc2c1ncn2[C@@H]1O[C@H](COP(=O)(O)O)[C@@H](O)[C@@H]1O [F-araAMP, 2-fluoro-arabinofuranosyladenine monophosphate, reference compound]
Activity against D54 glioma tumors expressing the E. coli PNP gene (D54-PNP tumors): good activity | Effect of F-araAMP on growth of 16/C tumors expressing E. coli PNP (16/C-PNP cells): growth delay for at least ten days; also recorded: significantly inhibited the growth | Effect on growth of wild-type 16/C tumors [4]: only a small effect on tumor growth | Complete Regressions/Total (16/C-PNP tumors; [10]): 0/6 | Day delay (Treated-control) (16/C-PNP tumors; [10]): 3.3 days | Nonspecific Deaths/Total (16/C-PNP tumors; [10]): 0/6 | Delay in time for three tumor doublings, in words (16/C-PNP tumors; p<0.01): statistically significant delay | Days for tumor to double 3 times mean/SD (16/C-PNP tumors; tumors that completely regressed not included): 12.1 ± 1.6 days | Anti-tumor effect on PNP transduced tumors in mice (PNP transduced tumors): in vivo regression | Complete Regressions/Total (wild-type 16/C tumors; [10]): 0/6 | Day delay (Treated-control) (wild-type 16/C tumors; [10]): 2.7 days | Nonspecific Deaths/Total (wild-type 16/C tumors; [10]): 0/6 | Delay in tumor growth, in words (wild-type 16/C tumors; wild type 16/C): no statistically significant delay in tumor growth | Activity against tumors of wild-type and transduced cells at 80 to 20 (D54 glioma tumors): less active

Cc1ncnc2nc[nH]c12 [MeP, 6-methylpurine, reference compound]
Time to initial cytopathic effects [5]: ≤ 24 h | Effect on cells ([5]; MeP 3.75 μM-75 μM, by day 2): cell lysis and complete loss of cellular architecture | Tumor growth ([6]; 1.67 mg/kg intratumorally): intermediate effect upon tumor growth | Tumor growth ([6]; 5.0 mg/kg intratumorally): completely arrested in terms of their growth | Stability under tissue culture conditions [7]: stable | Lethality to Mel-1 cells (Mel-1 cells): ~100% | Cell numbers relative to original number (CEM cells): approximately 25%

E. coli PNP (Escherichia coli K-12)
Km ([8]; other: enzyme source: Bacteria): 44 µM | Km ([8]; other: enzyme source: D54 cells (transduced)): 38 µM | Km [9]: 46 µM
